Source: ChEMBL document CHEMBL4808199, “Cyclopentenone-Containing Tetrahydroquinoline and Geldanamycin Alkaloids from Streptomyces malaysiensis as Potential Anti-Androgens against Prostate Cancer Cells” (J Nat Prod, 2021)
pIC50: −log10 of the molar value. Activity calls are given as the source filed them. No cut-off for these calls is given here.

How the values were obtained:
[1] = test system: MDA-MB-231; experiment: Cytotoxicity against human MDA-MB-231 cells; format: functional, cell-based
[2] = test system: LNCaP C4-2B; experiment: Cytotoxicity against human C42B cells; format: functional, cell-based
[3] = test system: CWR22R; experiment: Cytotoxicity against human 22Rv1 cells; format: functional, cell-based
[4] = test system: NCI-H446; experiment: Cytotoxicity against human H446 cells; format: functional, cell-based
[5] = test system: MGC-803; experiment: Cytotoxicity against human MGC-803 cells; format: functional, cell-based
[6] = test system: CWR22R; experiment: Inhibition of androgen receptor protein expression in human 22Rv1 cells incubated for […] by Immunoblotting analysis; format: functional, cell-based
[7] = test system: LNCaP C4-2B; experiment: Inhibition of androgen receptor protein expression in human C4-2B cells incubated for […] by Immunoblotting analysis; format: functional, cell-based
[8] = test system: LNCaP C4-2B; experiment: Inhibition of androgen receptor mRNA expression in human C4-2B cells incubated for […] by qRT-PCR analysis; format: functional, cell-based
[9] = test system: RWPE-1; experiment: Cytotoxicity against human RWPE-1 cells; format: cell-based
[10] = test system: CWR22R; experiment: Induction of apoptosis in human 22Rv1 cells assessed as inhibition of Cmyc protein expression at 0.15 to 0.6 uM incubated for […] by Immunoblotting analysis; format: functional, cell-based; details: dose 0.15-0.6 µM, time […]
[11] = test system: LNCaP C4-2B; experiment: Induction of apoptosis in human C4-2B cells assessed as inhibition of Cmyc protein expression at 0.075 to 0.3 uM incubated for […] by Immunoblotting analysis; format: functional, cell-based; details: dose 0.075-0.3 µM
[12] = Selective index, ratio of IC50 for human RWPE1 to IC50 for human H446 cells
[13] = test system: LNCaP C4-2B; experiment: Induction of cell cycle arrest in human C4-2B cells assessed as accumulation of cells at G0/G1 phase at 0.3 uM incubated for 48 hrs by RED-B-HLi fluorescence assay (reference value: 41.57%); format: functional
[14] = test system: LNCaP C4-2B; experiment: Induction of cell cycle arrest in human C4-2B cells assessed as accumulation of cells at S phase at 0.3 uM incubated for 48 hrs by RED-B-HLi fluorescence assay (reference value: 42.69%); format: functional
[15] = test system: LNCaP C4-2B; experiment: Induction of cell cycle arrest in human C4-2B cells assessed as accumulation of cells at G2-M phase at 0.3 uM incubated for 48 hrs by RED-B-HLi fluorescence assay (reference value: 15.74%); format: functional
[16] = test system: LNCaP C4-2B; experiment: Induction of apoptosis in human C4-2B cells assessed as increase in caspase 3/7 activity at 0.3 uM after 24 hrs relative to control; format: functional, cell-based
[17] = test system: CWR22R; experiment: Induction of apoptosis in human 22Rv1 cells assessed as increase in caspase 3/7 activity at 0.3 uM after 24 hrs relative to control; format: functional, cell-based
[18] = test system: LNCaP C4-2B; experiment: Induction of apoptosis in human C4-2B cells assessed as increase in cleaved 7 level after 24 hrs by immunoblotting analysis relative to control; format: functional, cell-based
[19] = test system: CWR22R; experiment: Induction of apoptosis in human 22Rv1 cells assessed as increase in cleaved 7 level after 24 hrs by immunoblotting analysis relative to control; format: functional, cell-based
[20] = test system: LNCaP C4-2B; experiment: Induction of apoptosis in human C4-2B cells assessed as increase in cleaved PARP1 level after 24 hrs by immunoblotting analysis relative to control; format: functional, cell-based
[21] = test system: CWR22R; experiment: Induction of apoptosis in human 22Rv1 cells assessed as increase in cleaved PARP1 level after 24 hrs by immunoblotting analysis relative to control; format: functional, cell-based
[22] = test system: LNCaP C4-2B; experiment: Inhibition of colony formation in human C4-2B cells at 0.075 to 0.3 uM for 12 days by crystal violet staining based assay; format: functional, cell-based; details: dose 0.075-0.3 µM, time 12.0 day
[23] = test system: CWR22R; experiment: Inhibition of colony formation in human 22Rv1 cells at 0.075 to 0.3 uM for 12 days by crystal violet staining based assay; format: functional, cell-based; details: dose 0.075-0.3 µM, time 12.0 day
[24] = test system: CWR22R; experiment: Inhibition of androgen receptor mRNA expression in human 22Rv1 cells incubated for […] by […] analysis; format: functional, cell-based
[25] = test system: LNCaP C4-2B; experiment: Induction of apoptosis in human C4-2B cells assessed as inhibition of Cyclin E protein expression at 0.075 to 0.3 uM incubated for […] by Immunoblotting analysis; format: functional, cell-based; details: dose 0.075-0.3 µM
[26] = test system: CWR22R; experiment: Induction of apoptosis in human 22Rv1 cells assessed as inhibition of Cyclin E protein expression at 0.15 to 0.6 uM incubated for […] by Immunoblotting analysis; format: functional, cell-based; details: dose 0.15-0.6 µM
[27] = test system: LNCaP C4-2B; experiment: Induction of apoptosis in human C4-2B cells assessed as inhibition of KLK2 mRNA expression at 0.075 to 0.3 uM incubated for […] by qRT-PCR analysis; format: functional, cell-based; details: dose 0.075-0.3 µM
[28] = test system: CWR22R; experiment: Induction of apoptosis in human 22Rv1 cells assessed as inhibition of KLK2 mRNA expression at 0.15 to 0.6 uM incubated for […] by qRT-PCR analysis; format: functional, cell-based; details: dose 0.15-0.6 µM
[29] = test system: LNCaP C4-2B; experiment: Induction of apoptosis in human C4-2B cells assessed as inhibition of KLK3 mRNA expression at 0.075 to 0.3 uM incubated for […] by qRT-PCR analysis; format: functional, cell-based; details: dose 0.075-0.3 µM
[30] = test system: CWR22R; experiment: Induction of apoptosis in human 22Rv1 cells assessed as inhibition of KLK3 mRNA expression at 0.15 to 0.6 uM incubated for […] by qRT-PCR analysis; format: functional, cell-based; details: dose 0.15-0.6 µM
[31] = test system: LNCaP C4-2B; experiment: Induction of morphological changes in human C4-2B cells assessed as decrease in cell size incubated for 24 hrs by microscopy; format: functional, cell-based
[32] = test system: LNCaP C4-2B; experiment: Induction of morphological changes in human C4-2B cells assessed as increase in intracellular spaces incubated for 24 hrs by microscopy; format: functional, cell-based
[33] = Selective index, ratio of IC50 for human RWPE1 to IC50 for human LNCaP C4-2B cells; format: toxicity; details: RWPE1 cells and LNCaP C4-2B cells, read-out: Selectivity Index

SMILES: CC[C@@H]1[C@@H](C)O[C@@](OC)([C@@H](C)[C@H](O)[C@H](C)[C@H]2OC(=O)/C=C/C=C/[C@H](C)[C@@H]([C@@H](C)[C@@H](O)[C@H](C)[C@@]3(OC)C[C@@H](OC)[C@H](CC)[C@@H](C)O3)OC(=O)/C=C/C=C/[C@@H]2C)C[C@H]1OC
- pIC50 [1]: < 4.40
- pIC50 [2]: < 4.40
- pIC50 [3]: < 4.40
- pIC50 [4]: < 4.40
- pIC50 [5]: < 4.40

SMILES: COC1=C2C[C@@H](C)C[C@H](OC)[C@H](O)[C@@H](C)/C=C(\C)[C@H](OC(N)=O)[C@@H](OC)/C=C\C=C(/C)C(=O)NC(=C(SC)C1=O)C2=O
- pIC50 [1]: 5.28
- pIC50 [2]: 5.44
- pIC50 [3]: 5.43
- pIC50 [4]: 5.41
- pIC50 [5]: 5.10

SMILES: CO[C@H]1C[C@H](C)Cc2cc(O)cc(c2)NC(=O)/C(C)=C/CC[C@H](OC)[C@@H](OC(N)=O)/C(C)=C/[C@H](C)[C@H]1O
- pIC50 [1]: < 4.40
- pIC50 [2]: 4.49
- pIC50 [3]: 4.46
- pIC50 [4]: 4.55
- pIC50 [5]: < 4.40

SMILES: CC[C@@H](/C=C/C(=O)[C@@H](C)[C@H](O)[C@H](C)[C@H]1OC(=O)/C=C/C=C/[C@H](C)[C@@H]([C@@H](C)[C@@H](O)[C@H](C)C(=O)/C=C/[C@H](CC)[C@@H](C)O)OC(=O)/C=C/C=C/[C@@H]1C)[C@@H](C)O
- pIC50 [1]: < 4.40
- pIC50 [2]: 4.60
- pIC50 [3]: < 4.40
- pIC50 [4]: 4.60
- pIC50 [5]: < 4.40

SMILES: CC[C@@H]1[C@@H](C)O[C@@](OC)(/C(C)=C/[C@H](C)[C@H]2OC(=O)/C=C/C=C/[C@H](C)[C@@H]([C@@H](C)/C=C(\C)[C@@]3(OC)C[C@@H](OC)[C@H](CC)[C@@H](C)O3)OC(=O)/C=C/C=C/[C@@H]2C)C[C@H]1OC
- pIC50 [1]: 5.14
- pIC50 [2]: 4.85
- pIC50 [3]: 4.64
- pIC50 [4]: 4.60
- pIC50 [5]: 5.00

SMILES: COC[C@]1(CCC(C)=C(C)C)Nc2ccc(C(=O)NC3=C(O)CCC3=O)cc2C[C@@H]1Cl
- inhibition [6]: Active
- inhibition [7]: Active
- inhibition [8]: Active
- pIC50 [1]: 6.70
- pIC50 [9]: 6.68
- Activity [10]: Active
- Activity [11]: Active
- pIC50 [2]: 7.17
- pIC50 [3]: 6.57
- pIC50 [4]: 7.15
- pIC50 [5]: 6.96
- Selectivity Index [12]: 3.1
- Activity [13]: 56.03%
- Activity [14]: 24.3%
- Activity [15]: 19.67%
- Activity [16]: Active
- Activity [17]: Active
- Activity [18]: Dose-Dependent Effect
- Activity [19]: Dose-Dependent Effect
- Activity [20]: Dose-Dependent Effect
- Activity [21]: Dose-Dependent Effect
- inhibition [22]: Active
- inhibition [23]: Active
- inhibition [24]: Active
- Activity [25]: Active
- Activity [26]: Active
- Activity [27]: Active
- Activity [28]: Active
- Activity [29]: Active
- Activity [30]: Active
- Activity [31]: Active
- Activity [32]: Active

SMILES: CO[C@H]1/C=C\C=C(/C)C(=O)NC2=CC(=O)C(O)=C(C[C@@H](C)C[C@H](OC)[C@H](O)[C@@H](C)/C=C(\C)[C@@H]1OC(N)=O)C2=O
- pIC50 [1]: 4.77
- pIC50 [2]: 4.96
- pIC50 [3]: 4.60
- pIC50 [4]: 4.60
- pIC50 [5]: 4.72

SMILES: COC(=O)[C@@]1(O)C(OC)=C2C[C@@H](C)C[C@H](OC)[C@H](O)[C@@H](C)/C=C(\C)[C@H](OC(N)=O)[C@@H](OC)/C=C\C=C(/C)C(=O)N[C@@H]1C2=O
- pIC50 [1]: < 4.40
- pIC50 [2]: < 4.40
- pIC50 [3]: < 4.40
- pIC50 [4]: 5.54
- pIC50 [5]: < 4.40

SMILES: COC1=C2C[C@@H](C)C[C@H](OC)[C@H](O)[C@@H](C)/C=C(\C)[C@H](OC(N)=O)[C@@H](OC)/C=C\C=C(/C)C(=O)NC(=CC1=O)C2=O [GELDANAMYCIN]
- pIC50 [1]: 5.72
- pIC50 [9]: 5.42
- pIC50 [2]: 6.30
- pIC50 [3]: 6.07
- pIC50 [4]: 5.66
- pIC50 [5]: 5.48
- selectivity ratio [33]: 7.6

SMILES: CNC(=O)c1ccc(N2C(=S)N(c3ccc(C#N)c(C(F)(F)F)c3)C(=O)C2(C)C)cc1F [ENZALUTAMIDE]
- pIC50 [9]: < 4.40
- pIC50 [3]: 4.42
- selectivity ratio [33]: > 2.2
